Assay results taken from the supplement of paper PMC6580486.

How the values were obtained:
s1-12 = system: s1-12 (canine undifferentiated pleomorphic sarcoma culture)
Protocol: (§1)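 60-agent targeted drug screens (Drug Screen V3 on epithelioid sarcoma cultures PCB490-3/4/5, PCB495, EPS cell lines ESX, VA-ES-BJ, FU-EPS-1 and SkMc myoblasts; PPTI screen v2.1 on human UPS PCB197 and canine UPS S1-12). 384-well plates, 72 h, CellTiter-Glo viability; IC50 by Hill curve fit. 10000 nM = no IC50 achieved (top reported value).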

pcb-00197 = system: pcb-00197 (human undifferentiated pleomorphic sarcoma culture)
Protocol: as §1

PCB490-4 = system: PCB490-4 (human epithelioid sarcoma primary culture)
Protocol: (§2)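 Roche open-access kinase inhibitor screen (223 compounds) on human epithelioid sarcoma primary cultures from three spatially distinct regions of tumor PCB490. 384-well plates, 72 h, CellTiter-Glo viability; IC50 by Hill curve fit. 100000 nM = no IC50 reached. Compound ids carry a plate-well prefix, which is stripped.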

PCB490-3 = system: PCB490-3 (human epithelioid sarcoma primary culture)
Protocol: as §2

PCB490-5 = system: PCB490-5 (human epithelioid sarcoma primary culture)
Protocol: as §2

SMILES | IC50 cell viability (s1-12) [µM] | IC50 cell viability (pcb-00197) [µM] | IC50 cell viability (PCB490-4) [µM] | IC50 cell viability (PCB490-3) [µM] | IC50 cell viability (PCB490-5) [µM]
COc1cc2nccc(Oc3ccc(NC(=O)C4(C(=O)Nc5ccc(F)cc5)CC4)cc3)c2cc1OC [Cabozantinib] | > 10 | > 10 |  |  | 
COc1cc(Nc2ncc(F)c(Nc3ccc4c(n3)N(COP(=O)(O)O)C(=O)C(C)(C)O4)n2)cc(OC)c1OC [Fostamatinib] | 0.73 | 4.33 |  |  | 
CC(/C=C/C(=O)NO)=C\[C@@H](C)C(=O)c1ccc(N(C)C)cc1 [trichostatin] | 0.87 | > 10 |  |  | 
CCOc1cc2ncc(C#N)c(Nc3ccc(F)c(Cl)c3)c2cc1NC(=O)/C=C/CN(C)C [pelitinib] | 0.2 | > 10 |  |  | 
C[C@@]1(C(=O)Nc2ccc(F)nc2)CCCN1c1nc(Nc2cc(C3CC3)n[nH]2)c2cccn2n1 | 0.01 | 2.35 |  |  | 
CCNC(=O)c1noc(-c2cc(C(C)C)c(O)cc2O)c1-c1ccc(CN2CCOCC2)cc1 [AUY922] | 0.03 | 0.4 |  |  | 
CNC(=O)CN1CCC(Oc2cc3c(Nc4cccc(Cl)c4F)ncnc3cc2OC)CC1 [AZD-8931] | > 10 | > 10 |  |  | 
CCN(CC)CCCC(C)Nc1c2ccc(Cl)cc2nc2ccc(OC)cc12 (configuration not stated) [quinacrine] | 0.99 | 1.57 |  |  | 
COC1=CC(c2cc3ccccc3[nH]2)=N/C1=C\c1[nH]c(C)cc1C [obatoclax] | 0.04 | 0.21 |  |  | 
CCCS(=O)(=O)Nc1ccc(F)c(C(=O)c2c[nH]c3ncc(-c4ccc(Cl)cc4)cc23)c1F [vemurafenib] | > 10 | > 10 |  |  | 
CC/C(=C(\c1ccccc1)c1ccc(OCCN(C)C)cc1)c1ccccc1 [Tamoxifen] | > 10 | > 10 |  |  | 
Cn1cnc2c(F)c(Nc3ccc(Br)cc3Cl)c(C(=O)NOCCO)cc21 [selumetinib] | 1.55 | > 10 |  |  | 
CC(C)C[C@H](NC(=O)[C@H](CCc1ccccc1)NC(=O)CN1CCOCC1)C(=O)N[C@@H](Cc1ccccc1)C(=O)N[C@@H](CC(C)C)C(=O)[C@@]1(C)CO1 [carfilzomib] | 0.99 | 0.47 |  |  | 
CN1CC[C@H](c2c(O)cc(O)c3c(=O)cc(-c4ccccc4Cl)oc23)[C@H](O)C1 [Alvocidib] | 0.01 | 0.26 |  |  | 
COc1cc2/c(=N/c3ccc(Br)cc3F)nc[nH]c2cc1OCC1CCN(C)CC1 [Vandetanib] | 1.24 | 1.32 |  |  | 
CCN(CCCOc1ccc2c(Nc3cc(CC(=O)Nc4cccc(F)c4)[nH]n3)ncnc2c1)CCOP(=O)(O)O [barasertib] | > 10 | > 10 |  |  | 
CC1=C(/C=C/C(C)=C/C=C/C(C)=C/C(=O)O)C(C)(C)CCC1 [retinoic acid] | 2.04 | > 10 |  |  | 
Cc1cn(-c2cc(NC(=O)c3ccc(C)c(Nc4nccc(-c5cccnc5)n4)c3)cc(C(F)(F)F)c2)cn1 [Nilotinib] | > 10 | > 10 |  |  | 
N#CC[C@H](C1CCCC1)n1cc(-c2ncnc3[nH]ccc23)cn1 [ruxolitinib] | 6.93 | > 10 |  |  | 

SMILES | IC50 cell viability (s1-12) [µM] | IC50 cell viability (pcb-00197) [µM] | IC50 cell viability (PCB490-4) [µM] | IC50 cell viability (PCB490-3) [µM] | IC50 cell viability (PCB490-5) [µM]
C=C1C[C@@H]2CC[C@@]34C[C@H]5O[C@H]6[C@@H](O3)[C@H]3O[C@H](CC[C@@H]3O[C@H]6[C@H]5O4)CC(=O)C[C@@H]3[C@@H](OC)[C@@H](C[C@H](O)CN)O[C@H]3C[C@H]3O[C@@H](CC[C@@H]1O2)C[C@@H](C)C3=C [Eribulin] | 1.31 | 0.01 |  |  | 
N#Cc1ccc(COC[C@H]2O[C@@H](n3c(NCc4ccc(Cl)c(Cl)c4)nc4c(N)ncnc43)[C@H](O)[C@@H]2O)cc1 | > 10 | > 10 |  |  | 
Cc1nc(Nc2ncc(C(=O)Nc3c(C)cccc3Cl)s2)cc(N2CCN(CCO)CC2)n1 [dasatinib] | 0.86 | 0.14 |  |  | 
Cc1ccc(Nc2nccc(N(C)c3ccc4c(C)n(C)nc4c3)n2)cc1S(N)(=O)=O [pazopanib] | > 10 | > 10 |  |  | 
Cn1c(=O)n(-c2ccc(C(C)(C)C#N)cc2)c2c3cc(-c4cnc5ccccc5c4)ccc3ncc21 [BEZ 235] | 0.22 | 0.57 |  |  | 
Cc1[nH]c2ccccc2c1CCNCc1ccc(/C=C/C(=O)NO)cc1 [panobinostat] | 0.1 | 1.05 |  |  | 
Cc1ccc(C(=O)Nc2ccc(CN3CCN(C)CC3)c(C(F)(F)F)c2)cc1C#Cc1cnc2cccnn12 [ponatinib] | 0.16 | 4.43 |  |  | 
O=c1c(Oc2ccc(F)cc2F)cc2cnc(NC3CCOCC3)nc2n1C1CC1 |  |  | > 100 | > 100 | > 100
O=C1NC(=N[C@H](CO)c2ccccc2)S/C1=C\c1ccc2ncccc2c1 |  |  | > 100 | > 100 | > 100
Cn1cc(C2=C(c3cn(CCCCCO)c4ccccc34)C(=O)NC2=O)c2ccccc21 |  |  | > 100 | > 100 | > 100
COc1ccc(O)c(C(=O)c2ccc(C(=O)N[C@@H]3CCCNC[C@H]3NC(=O)c3ccncc3)cc2)c1F |  |  | > 100 | > 100 | > 100
Cn1c(=O)c(Oc2ccc(F)cc2F)cc2cnc(NCCS(C)(=O)=O)nc21 |  |  | > 100 | > 100 | > 100
Nc1c(C(=O)c2cccc(CCC3(O)CCCC3)c2)cnn1-c1ccc(F)cc1 |  |  | > 100 | > 100 | > 100
Fc1ccc(-c2c(-c3ccncc3)[nH]c3cccnc23)cc1 |  |  | > 100 | > 100 | > 100
CN1C[C@@H]2Cn3c(c(C4=C(c5cn(C)c6ccccc56)C(=O)NC4=O)c4ccccc43)C[C@H]2C1 |  |  | > 100 | > 100 | > 100
O=C1NC(=NCc2c(Cl)cccc2Cl)S/C1=C\c1ccc2ncccc2c1 |  |  | > 100 | > 100 | > 100
Cn1cc(C2=C(c3cn(C)c4ncccc34)C(=O)NC2=O)c2ccccc21 |  |  | > 100 | > 100 | > 100
Cn1cc(C2=C(c3cn(-c4ccccc4)c4ccccc34)C(=O)NC2=O)c2ccccc21 |  |  | > 100 | > 100 | > 100
Cn1c(-c2ccncc2)c(-c2ccc(F)cc2)c2ncccc21 |  |  | > 100 | > 100 | > 100

SMILES | IC50 cell viability (s1-12) [µM] | IC50 cell viability (pcb-00197) [µM] | IC50 cell viability (PCB490-4) [µM] | IC50 cell viability (PCB490-3) [µM] | IC50 cell viability (PCB490-5) [µM]
Cc1ccccc1-n1ncc(C(=O)c2ccccc2)c1N |  |  | > 100 | > 100 | > 100
CC(=O)Nc1ccc2c(c1)C(c1ccccc1Cl)=Nc1c(n[nH]c1C)N2 |  |  | 1.72 | 4.63 | 1.55
Cn1cc(C2=C(c3ccccc3[N+](=O)[O-])C(=O)NC2=O)c2ccccc21 |  |  | > 100 | > 100 | > 100
COC[C@H](N=C1NC(=O)/C(=C/c2ccc3ncccc3c2)S1)c1ccccc1 |  |  | > 100 | > 100 | > 100
Cc1c(C2=C(c3cn(C)c4ccccc34)C(=O)NC2=O)c2ccccc2n1C |  |  | > 100 | > 100 | > 100
Cn1cc(C2=C(c3c4n(c5ccccc35)CCN(C(N)=S)C4)C(=O)NC2=O)c2ccccc21 |  |  | > 100 | > 100 | > 100
O=C1NC(=O)C(c2c[nH]c3ccccc23)=C1c1ccccc1 |  |  | > 100 | > 100 | > 100
Cn1cc(C2=C(c3cn(CCCN)c4ccccc34)C(=O)NC2=O)c2ccccc21 |  |  | > 100 | > 100 | > 100
Cn1cc(C2=C(c3cn(C)c4ccc(N)cc34)C(=O)NC2=O)c2ccccc21 |  |  | > 100 | > 100 | > 100
N#CCn1c(=O)c(Oc2ccc(F)cc2F)cc2cnc(NC3CCOCC3)nc21 |  |  | > 100 | > 100 | > 100
COc1cccc(C2=C(c3c(C)n(C)c4ccccc34)C(=O)NC2=O)c1 |  |  | > 100 | > 100 | > 100
Cn1cc(C2=C(c3ccc(N)cc3)C(=O)NC2=O)c2ccccc21 |  |  | > 100 | > 100 | > 100
COc1ccccc1CCN=C1NC(=O)/C(=C/c2ccc3ncccc3c2)S1 |  |  | > 100 | > 100 | > 100
O=C1NC(=N[C@@H]2C[C@H]2c2ccccc2)S/C1=C\c1ccc2ncccc2c1 |  |  | > 100 | > 100 | > 100
Cn1cc(C2=C(c3cn(C)c4ccc(OCc5ccccc5)cc34)C(=O)NC2=O)c2ccccc21 |  |  | > 100 | > 100 | > 100
COc1cccc(F)c1C(=O)c1cnc(NC2CCN(S(C)(=O)=O)CC2)nc1N |  |  | > 100 | > 100 | > 100
Cn1c(=O)c(Oc2ccc(F)cc2F)cc2cnc(NCC(C)(C)O)nc21 |  |  | > 100 | > 100 | > 100
Cn1cc(C2=C(c3cccc(Br)c3)C(=O)NC2=O)c2ccccc21 |  |  | > 100 | > 100 | > 100
